From patent publication US6914045B2, “Glycopeptide antibiotics” (Wyeth Holdings Corporation, priority 2001, dated 2005)
Converted amounts (≈) assume the structure as drawn.

Assays:
[1] = test system: Enterococcus faecalis (GC 6189); assay: acute lethal infection in mice; format: in vivo; details: female CD-1 mice, intraperitoneal challenge, intravenous 30 min. after infection, 7 day survival
Summary of the method: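 Mice (female CD-1, 20+/−2 gm) receive bacteria ip in broth or hog gastric mucin, then test agent iv after 30 min. Median effective dose is calculated from 7 day survival pooled across 3 tests.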

Escherichia coli = assay: in vitro antibacterial evaluation, MIC by broth dilution; format: cell-based; details: 18 hours at 35° C.
Summary of the method: (§1)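 Inoculum 5×10^5 CFU/mL; concentrations 64 to 0.06 μg/mL; MIC defined as lowest inhibitory level. Conducted by broth dilution under NCCLS guidelines.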

Enterococcus sp. = assay: as above; format: cell-based; details: broth dilution, 18 hours at 35° C.
Summary of the method: as §1

Staphylococcus sp. = assay: as above; format: cell-based; details: broth dilution, 18 hours at 35° C.
Summary of the method: as §1

Streptococcus sp. = assay: as above; format: cell-based; details: broth dilution, 18 hours at 35° C.
Summary of the method: as §1

For CC(c1ccccc1)C1NC(=O)CNC(=O)C(CO)NC(=O)C(C(O)C2CNC(=N)N2C2OC(CO)C(O)C(O)C2O)NC(=O)C(C(O)C2CNC(=N)N2)NC(=O)C(Cc2ccc(OC3OC(CO)C(OC4OC5COC(C6CCCC6)OC5C(O)C4O)C(O)C3O)cc2)NC1=O (stereo not drawn) [Example 117, Cyclo[glycyl-β-methylphenylalanyl-O-[4-O-[4,6-O-(cyclopentylmethylene)hexopyranosyl]-hexopyranosyl]tyrosyl-3-(2-iminoiniidazolidin-4-yl)seryl-3-(3-hexopyranosyl-2-iminoimidazolidin-4-yl)serylseryl]], the median effective dose (ED50), Enterococcus faecalis (GC 6189) [1] was 0.38 mg/kg, the “MIC Escherichia coli (ATCC 25922)” value (Escherichia coli; strain ATCC 25922) was 64 µg/mL (≈ 46.5 µM) and the “MIC Escherichia coli (GC 4559)” value (Escherichia coli; strain GC 4559) was 32 µg/mL (≈ 23.3 µM). The “MIC Escherichia coli (GC 4560)” value (Escherichia coli; strain GC 4560) was 1 µg/mL (≈ 0.727 µM), the “MIC Enterococcus avium (GC 4558)” value (Enterococcus sp.; Enterococcus avium (GC 4558)) was 4 µg/mL (≈ 2.91 µM) and the “MIC Enterococcus faecalis (ATCC 29212)” value (Enterococcus sp.; Enterococcus faecalis (ATCC 29212)) was 2 µg/mL (≈ 1.45 µM). The “MIC Enterococcus faecalis (GC 2242)” value (Enterococcus sp.; Enterococcus faecalis (GC 2242)) was 2 µg/mL (≈ 1.45 µM), the “MIC Enterococcus faecalis (GC 2691)” value (Enterococcus sp.; Enterococcus faecalis (GC 2691)) was 4 µg/mL (≈ 2.91 µM) and the “MIC Enterococcus faecalis (GC 3059)” value (Enterococcus sp.; Enterococcus faecalis (GC 3059)) was 4 µg/mL (≈ 2.91 µM). The “MIC Enterococcus faecalis (GC 4552)” value (Enterococcus sp.; Enterococcus faecalis (GC 4552)) was 4 µg/mL (≈ 2.91 µM), the “MIC Enterococcus faecalis (GC 4553)” value (Enterococcus sp.; Enterococcus faecalis (GC 4553)) was 4 µg/mL (≈ 2.91 µM) and the “MIC Enterococcus faecalis (GC 4554)” value (Enterococcus sp.; Enterococcus faecalis (GC 4554)) was 2 µg/mL (≈ 1.45 µM). For the same compound, the “MIC Enterococcus faecalis (GC 6189)” value (Enterococcus sp.; Enterococcus faecalis (GC 6189)) was 2 µg/mL (≈ 1.45 µM), the “MIC Enterococcus faecium (GC 2243)” value (Enterococcus sp.; Enterococcus faecium (GC 2243)) was 2 µg/mL (≈ 1.45 µM) and the “MIC Enterococcus faecium (GC 4556)” value (Enterococcus sp.; Enterococcus faecium (GC 4556)) was 2 µg/mL (≈ 1.45 µM). The “MIC Enterococcus faecium (GC 4557)” value (Enterococcus sp.; Enterococcus faecium (GC 4557)) was 2 µg/mL (≈ 1.45 µM), the “MIC Enterococcus faecalis (ATCC 29212)” value (Enterococcus sp.; strain ATCC 29212) was 2 µg/mL (≈ 1.45 µM) and the “MIC Enterococcus faecalis (GC 2242)” value (Enterococcus sp.; strain GC 2242) was 2 µg/mL (≈ 1.45 µM). For the same compound, the “MIC Enterococcus faecium (GC 2243)” value (Enterococcus sp.; strain GC 2243) was 2 µg/mL (≈ 1.45 µM), the “MIC Enterococcus faecalis (GC 2691)” value (Enterococcus sp.; strain GC 2691) was 4 µg/mL (≈ 2.91 µM) and the “MIC Enterococcus faecalis (GC 3059)” value (Enterococcus sp.; strain GC 3059) was 4 µg/mL (≈ 2.91 µM). The “MIC Enterococcus faecalis (GC 4552)” value (Enterococcus sp.; strain GC 4552) was 4 µg/mL (≈ 2.91 µM), the “MIC Enterococcus faecalis (GC 4553)” value (Enterococcus sp.; strain GC 4553) was 4 µg/mL (≈ 2.91 µM) and the “MIC Enterococcus faecalis (GC 4554)” value (Enterococcus sp.; strain GC 4554) was 2 µg/mL (≈ 1.45 µM). For the same compound, the “MIC Enterococcus faecium (GC 4556)” value (Enterococcus sp.; strain GC 4556) was 2 µg/mL (≈ 1.45 µM), the “MIC Enterococcus faecium (GC 4557)” value (Enterococcus sp.; strain GC 4557) was 2 µg/mL (≈ 1.45 µM) and the “MIC Enterococcus avium (GC 4558)” value (Enterococcus sp.; strain GC 4558) was 4 µg/mL (≈ 2.91 µM). The “MIC Enterococcus faecalis (GC 6189)” value (Enterococcus sp.; strain GC 6189) was 2 µg/mL (≈ 1.45 µM), the “MIC Coagulase Negative Staphylococcus (GC 4547)” value (Staphylococcus sp.) was 1 µg/mL (≈ 0.727 µM) and the “MIC Coagulase Negative Staphylococcus (GC 4548)” value (Staphylococcus sp.) was 1 µg/mL (≈ 0.727 µM). The “MIC Coagulase Negative Staphylococcus (GC 4549)” value (Staphylococcus sp.) was 1 µg/mL (≈ 0.727 µM), the “MIC Coagulase Negative Staphylococcus (GC 4551)” value (Staphylococcus sp.) was 2 µg/mL (≈ 1.45 µM) and the “MIC Coagulase Negative Staphylococcus (GC 6257)” value (Staphylococcus sp.) was 0.5 µg/mL (≈ 0.364 µM). The “MIC Staphylococcus aureus (ATCC 29213)” value (Staphylococcus sp.) was 1 µg/mL (≈ 0.727 µM), the “MIC Staphylococcus aureus (GC 1131)” value (Staphylococcus sp.) was 2 µg/mL (≈ 1.45 µM) and the “MIC Staphylococcus aureus (GC 3051)” value (Staphylococcus sp.) was 1 µg/mL (≈ 0.727 µM). For the same compound, the “MIC Staphylococcus aureus (GC 3053)” value (Staphylococcus sp.) was 2 µg/mL (≈ 1.45 µM), the “MIC Staphylococcus aureus (GC 4541)” value (Staphylococcus sp.) was 1 µg/mL (≈ 0.727 µM) and the “MIC Staphylococcus aureus (GC 4542)” value (Staphylococcus sp.) was 1 µg/mL (≈ 0.727 µM). The “MIC Staphylococcus aureus (GC 4544)” value (Staphylococcus sp.) was 2 µg/mL (≈ 1.45 µM), the “MIC Staphylococcus aureus (GC 4545)” value (Staphylococcus sp.) was 1 µg/mL (≈ 0.727 µM) and the “MIC Staphylococcus aureus-SMITH (GC 4543)” value (Staphylococcus sp.) was 1 µg/mL (≈ 0.727 µM). For the same compound, the “MIC Staphylococcus haemolyticus (GC 4546)” value (Staphylococcus sp.) was 1 µg/mL (≈ 0.727 µM), the “MIC Staphylococcus aureus (GC 1131)” value (Staphylococcus sp.; inoculum 5×10^5 CFU/mL, strain GC 1131) was 2 µg/mL (≈ 1.45 µM) and the “MIC Staphylococcus aureus (ATCC 29213)” value (Staphylococcus sp.; strain ATCC 29213) was 1 µg/mL (≈ 0.727 µM). For the same compound, the “MIC Staphylococcus aureus (GC 3051)” value (Staphylococcus sp.; strain GC 3051) was 1 µg/mL (≈ 0.727 µM), the “MIC Staphylococcus aureus (GC 3053)” value (Staphylococcus sp.; strain GC 3053) was 2 µg/mL (≈ 1.45 µM) and the “MIC Staphylococcus aureus (GC 4541)” value (Staphylococcus sp.; strain GC 4541) was 1 µg/mL (≈ 0.727 µM). The “MIC Staphylococcus aureus (GC 4542)” value (Staphylococcus sp.; strain GC 4542) was 1 µg/mL (≈ 0.727 µM), the “MIC Staphylococcus aureus (GC 4544)” value (Staphylococcus sp.; strain GC 4544) was 2 µg/mL (≈ 1.45 µM) and the “MIC Staphylococcus aureus (GC 4545)” value (Staphylococcus sp.; strain GC 4545) was 1 µg/mL (≈ 0.727 µM). For the same compound, the “MIC Staphylococcus haemolyticus (GC 4546)” value (Staphylococcus sp.; strain GC 4546) was 1 µg/mL (≈ 0.727 µM), the “MIC Coagulase Negative Staphylococcus (GC 4547)” value (Staphylococcus sp.; strain GC 4547) was 1 µg/mL (≈ 0.727 µM) and the “MIC Coagulase Negative Staphylococcus (GC 4548)” value (Staphylococcus sp.; strain GC 4548) was 1 µg/mL (≈ 0.727 µM). For the same compound, the “MIC Coagulase Negative Staphylococcus (GC 4549)” value (Staphylococcus sp.; strain GC 4549) was 1 µg/mL (≈ 0.727 µM), the “MIC Coagulase Negative Staphylococcus (GC 4551)” value (Staphylococcus sp.; strain GC 4551) was 2 µg/mL (≈ 1.45 µM) and the “MIC Coagulase Negative Staphylococcus (GC 6257)” value (Staphylococcus sp.; strain GC 6257) was 0.5 µg/mL (≈ 0.364 µM). The “MIC Staphylococcus aureus-SMITH (GC 4543)” value (Staphylococcus sp.; strain SMITH GC 4543) was 1 µg/mL (≈ 0.727 µM), the “MIC Streptococcus agalactiae (GC 4564)” value (Streptococcus sp.; Streptococcus agalactiae (GC 4564)) was 0.25 µg/mL (≈ 0.182 µM) and the “MIC Streptococcus pneumoniae (ATCC 6301)” value (Streptococcus sp.; Streptococcus pneumoniae (ATCC 6301)) was under 0.06 µg/mL. For the same compound, the “MIC Streptococcus pneumoniae (GC 1894)” value (Streptococcus sp.; Streptococcus pneumoniae (GC 1894)) was under 0.06 µg/mL, the “MIC Streptococcus pneumoniae (GC 4565)” value (Streptococcus sp.; Streptococcus pneumoniae (GC 4565)) was 0.12 µg/mL (≈ 0.0872 µM) and the “MIC Streptococcus pyogenes (GC 4563)” value (Streptococcus sp.; Streptococcus pyogenes (GC 4563)) was 0.25 µg/mL (≈ 0.182 µM). For the same compound, the “MIC Streptococcus pneumoniae (ATCC 6301)” value (Streptococcus sp.; strain ATCC 6301) was under 0.06 µg/mL, the “MIC Streptococcus pneumoniae (GC 1894)” value (Streptococcus sp.; strain GC 1894) was under 0.06 µg/mL and the “MIC Streptococcus pyogenes (GC 4563)” value (Streptococcus sp.; strain GC 4563) was 0.25 µg/mL (≈ 0.182 µM). For the same compound, the “MIC Streptococcus agalactiae (GC 4564)” value (Streptococcus sp.; strain GC 4564) was 0.25 µg/mL (≈ 0.182 µM) and the “MIC Streptococcus pneumoniae (GC 4565)” value (Streptococcus sp.; strain GC 4565) was 0.12 µg/mL (≈ 0.0872 µM).
